Results taken from PMC12948427 (The Journal of Clinical Investigation, 2025).
Values joined by “and” are separate entries in the source; they are usually repeats but may differ in a detail not shown here. Equal entries are not always repeated. Where two headings read alike, the source gives them in different places. Ends that are not written are not given here.

Key:
MHV [1] = tested on: MHV
hHgs 1-390 protein [2] = molecular target: T1, hHgs 1-390 protein (Homo sapiens, UniProt O14964); test: biochemical
hHgs 1-390 protein [3] = molecular target: T1, hHgs 1-390 protein
MHV [4] = tested on: MHV; parameters: species or system C57BL/6JGpt mice; conditions: in vivo

T1 sequence (O14964 1-390): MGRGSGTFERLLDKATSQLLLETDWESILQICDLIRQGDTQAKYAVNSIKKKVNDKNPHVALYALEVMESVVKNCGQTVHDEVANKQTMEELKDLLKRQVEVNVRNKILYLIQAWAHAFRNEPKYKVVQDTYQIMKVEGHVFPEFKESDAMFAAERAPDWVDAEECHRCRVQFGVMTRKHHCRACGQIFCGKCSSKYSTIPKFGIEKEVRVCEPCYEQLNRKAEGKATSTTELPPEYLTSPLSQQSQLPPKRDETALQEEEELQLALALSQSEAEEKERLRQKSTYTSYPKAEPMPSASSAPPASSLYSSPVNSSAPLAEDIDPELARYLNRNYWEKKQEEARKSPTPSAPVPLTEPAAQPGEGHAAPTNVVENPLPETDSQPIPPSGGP

Row | Molecule | viability of infected cells (rescue of cytopathic effect), Figures S9G-L (MHV [1]; concentration 10) | viability of infected cells (rescue of cytopathic effect), Figures S9G-L (MHV [1]; concentration 30) | viability of infected cells (rescue of cytopathic effect), Figures S9G-L (MHV [1]; concentration 100) | viability of infected cells (rescue of cytopathic effect), Figures S9G-L (MHV [1]; concentration 300) | viability of infected cells (rescue of cytopathic effect), Figures S9G-L (MHV [1]; concentration 1000) | viability of infected cells (rescue of cytopathic effect), Figures S9G-L (MHV [1]; concentration 3000) | viability of infected cells (rescue of cytopathic effect), Figures S9G-L (MHV [1]; concentration 10000) | viability of infected cells (rescue of cytopathic effect), Figures S9G-L (MHV [1]; concentration 25000) | IC50 (hHgs 1-390 protein [2]) | cell viability, Figures S9A, B, D-F (17Cl-1 cells; concentration 0.01) | cell viability, Figures S9A, B, D-F (17Cl-1 cells; concentration 0.03) | cell viability, Figures S9A, B, D-F (17Cl-1 cells; concentration 0.1) | cell viability, Figures S9A, B, D-F (17Cl-1 cells; concentration 0.3) | cell viability, Figures S9A, B, D-F (17Cl-1 cells; concentration 1) | Polarization (hHgs 1-390 protein [3]; 0.00610352 uM) | Polarization (hHgs 1-390 protein [3]; 0.0244141 uM) | Polarization (hHgs 1-390 protein [3]; 0.0976562 uM) | Polarization (hHgs 1-390 protein [3]; 0.390625 uM) | Polarization (hHgs 1-390 protein [3]; 1.5625 uM) | Polarization (hHgs 1-390 protein [3]; 6.25 uM) | other results
1 | COc1cc(OC)c2ccc(=O)oc2c1 [Citropten, citropten] | 49.655 and 47.1823 and 44.4221 | 48.2749 and 46.3772 and 44.6233 | 44.4221 and 42.6394 and 45.4572 | 47.7573 and 43.5308 and 44.5946 | 47.3548 and 44.7384 and 49.3099 | 49.77 and 48.2461 and 50.575 | 55.1466 and 56.7568 | 67.4813 and 66.8775 and 68.0851 | 2170 nM | 100 | 100 | 100 | 100 | 100 | 144 | 145 and 146 | 135 and 136 | 119 and 129 | 75 and 87 | 26 and 35 | cell viability, Figures S9A, B, D-F (17Cl-1 cells; concentration 3): 100; cell viability, Figures S9A, B, D-F (17Cl-1 cells; concentration 10): 100; cell viability, Figures S9A, B, D-F (17Cl-1 cells; concentration 25): 100 and 98.7013 and 97.6623
2 | COc1ccc(N)cn1 [5-amino-2-methoxypyridine] |  |  |  |  |  |  |  |  | 3410 nM |  |  |  |  |  | 137 | 154 and 132 | 127 and 143 | 133 and 129 | 103 and 111 | 88 and 79 | Polarization (hHgs 1-390 protein [3]; 25 uM): 61; Polarization (hHgs 1-390 protein [3]; 100 uM): 51 and 48
3 | GAIRLHGRLIVAGIVLESEQPPRRRQRRKKRG (also: D-retroinverso) [M161-DRI, M161 modified with d-retroinverso (DRI) isoform] |  |  |  |  |  |  |  |  |  |  |  |  |  |  |  |  |  |  |  |  | readout per mouse, Figure S8P (quantity not given) (MHV [4]): 70 and 160 and 190 and 40 and 290 and 100; score per mouse, Figure S8Q (MHV [4]): 1 and 0; lung injury (histology) (MHV [4]; mouse, iv, 15 mg/kg): alleviated; viral gRNA in the lung (MHV [4]; mouse, iv, 15 mg/kg): significantly decreased; virus titer in the lung (plaque assay) (MHV [4]; mouse, iv, 15 mg/kg): significantly decreased
4 | CCOc1ccc2nc3cc(N)ccc3c(N)c2c1 [Ethacridine lactate, ethacridine lactate] | 29.3773 and 29.6337 and 29.1575 | 34.9451 and 36.63 and 36.4103 | 33.0403 and 35.0549 and 36.2271 | 32.8571 and 32.6374 and 34.6886 | 32.4176 and 32.0513 and 35.0916 | 33.0037 and 32.1612 and 34.9817 | 41.7582 and 41.0256 and 40.6593 | 8.462 and 8.5348 and 8.278 | 7140 nM | 101.299 and 101.948 and 102.597 | 100.98 and 101.961 and 102.614 | 100.429 and 99.7854 and 102.039 | 100.553 and 101.217 | 103.053 and 102.399 and 103.381 | 140 and 149 | 140 and 144 | 143 | 137 and 141 | 134 and 136 | 102 and 105 | cell viability, Figures S9A, B, D-F (17Cl-1 cells; concentration 3): 103.176 and 101.862 and 103.834; cell viability, Figures S9A, B, D-F (17Cl-1 cells; concentration 10): 96.1957 and 98.8043; cell viability, Figures S9A, B, D-F (17Cl-1 cells; concentration 25): 30.7973 and 30.3654 and 31.5947; Polarization (hHgs 1-390 protein [3]; 25 uM): 73 and 70; Polarization (hHgs 1-390 protein [3]; 100 uM): 68 and 66
5 | CC1=NN(c2ccc(C)c(C)c2)C(=O)/C1=N\Nc1cccc(-c2cccc(C(=O)O)c2)c1O [Eltrombopag, eltrombopag] | 40.6593 and 41.7582 and 41.3919 | 46.1538 and 47.2527 and 46.5201 | 46.1538 and 47.619 and 44.6886 | 42.4908 and 43.956 and 41.7582 | 41.3919 and 43.5897 and 40.6593 | 40.293 and 41.7582 | 45.0549 and 44.3223 and 43.5897 | 23.7729 and 23.8095 and 24.0659 | 1520 nM | 104.545 and 104.221 | 100.327 and 102.614 and 102.288 | 99.1416 and 102.682 and 102.039 | 104.867 and 102.544 and 103.872 | 103.708 and 104.035 | 143 and 142 | 147 and 141 | 143 and 140 | 145 and 149 | 107 and 109 | 80 and 76 | cell viability, Figures S9A, B, D-F (17Cl-1 cells; concentration 3): 104.491 and 102.191 and 102.848; cell viability, Figures S9A, B, D-F (17Cl-1 cells; concentration 10): 96.1957 and 94.8913 and 95.2174; cell viability, Figures S9A, B, D-F (17Cl-1 cells; concentration 25): 58.804 and 63.1229 and 62.4585; Polarization (hHgs 1-390 protein [3]; 25 uM): 89
